Measured values published in PubChem BioAssay AID330 (DTP/NCI, 2004).
Values joined by “and” are separate entries in the source; they are usually repeats but may differ in a detail not shown here. Equal values may be shown once. Toxic doses and inconclusive results are not listed.

System: P388 leukemia ip, CD2F1 mice, survival T/C
Assay: NCI In Vivo Anticancer Drug Screen. Data for tumor model P388 Leukemia (intraperitoneal) in CD2F1 (CDF1) mice
Conditions: endpoint: median survival time, higher = longer survival
Procedure, shortened: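 Mice carrying the transplanted tumor received test compound or vehicle. Survival was recorded in each group, and the value is the treated-group measurement divided by that of the vehicle-treated control group.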

[1] = dose: 50.0 mg/kg/injection, schedule: Q01DX009 (ip), vehicle: saline with Tween-80
[2] = dose: 100.0 mg/kg/injection, schedule: Q01DX009 (ip), vehicle: saline with Tween-80
[3] = dose: 200.0 mg/kg/injection, schedule: Q01DX009 (ip), vehicle: saline with Tween-80
[4] = dose: 50.0 mg/kg/injection, schedule: Q01DX005 (ip), vehicle: Klucel (hydroxypropylcellulose) (HPC)
[5] = dose: 100.0 mg/kg/injection, schedule: Q01DX005 (ip), vehicle: Klucel (hydroxypropylcellulose) (HPC)
[6] = dose: 200.0 mg/kg/injection, schedule: Q01DX005 (ip), vehicle: Klucel (hydroxypropylcellulose) (HPC)
[7] = dose: 50.0 mg/kg/injection, schedule: Q01DX005 (ip), vehicle: saline with Tween-80
[8] = dose: 100.0 mg/kg/injection, schedule: Q01DX005 (ip), vehicle: saline with Tween-80
[9] = dose: 200.0 mg/kg/injection, schedule: Q01DX005 (ip), vehicle: saline with Tween-80
[10] = dose: 50.0 mg/kg/injection, schedule: Q01DX009 (ip), vehicle: saline
[11] = dose: 100.0 mg/kg/injection, schedule: Q01DX009 (ip), vehicle: saline
[12] = dose: 200.0 mg/kg/injection, schedule: Q01DX009 (ip), vehicle: saline
[13] = dose: 25.0 mg/kg/injection, schedule: Q01DX009 (ip), vehicle: saline with Tween-80
[14] = dose: 60.0 mg/kg/injection, schedule: Q01DX005 (ip), vehicle: saline with Tween-80
[15] = dose: 120.0 mg/kg/injection, schedule: Q01DX005 (ip), vehicle: saline with Tween-80
[16] = dose: 240.0 mg/kg/injection, schedule: Q01DX005 (ip), vehicle: saline with Tween-80
[17] = dose: 12.5 mg/kg/injection, schedule: Q01DX009 (ip), vehicle: saline with Tween-80

CCCCC(CC)COC1CCS(=O)(=O)C1 (configuration not stated)
T/C [1]: 100 % of control
T/C [2]: 101 % of control
T/C [3]: 95 % of control

COc1cccc2c1C(=O)c1c(O)c3c(c(O)c1C2=O)CC(O)(c1cscn1)CC3OC1CC(N)C(O)C(C)O1 (configuration not stated)
T/C (dose: 25.0 mg/kg/injection, schedule: Q04DX003 (ip), vehicle: water): 118 % of control
T/C (dose: 50.0 mg/kg/injection, schedule: Q04DX003 (ip), vehicle: water): 157 % of control
T/C (dose: 100.0 mg/kg/injection, schedule: Q04DX003 (ip), vehicle: water): 124 % of control

CC1=CC2(CC(C)(C)C1)N(c1ccccc1)C(=O)C2(c1ccccc1)c1ccccc1 (configuration not stated)
T/C [4]: 91 % of control
T/C [5]: 91 % of control
T/C [6]: 87 % of control

C=CCOC(=O)C(NC(=O)OCCCC)NC(=O)OCCCC
T/C [7]: 103 % of control
T/C [8]: 100 % of control
T/C [9]: 98 % of control

CNC/C=C/CN(C)C(=S)S
T/C [10]: 108 % of control
T/C [11]: 92 % of control
T/C [12]: 96 % of control

CC(=O)OC1SC(C)(C)n2c1nc1ccccc1c2=O (configuration not stated)
T/C (dose: 100.0 mg/kg/injection, schedule: Q01DX001 (ip), vehicle: saline with Tween-80): 100 % of control
T/C (dose: 200.0 mg/kg/injection, schedule: Q01DX001 (ip), vehicle: saline with Tween-80): 104 % of control
T/C (dose: 400.0 mg/kg/injection, schedule: Q01DX001 (ip), vehicle: saline with Tween-80): 98 % of control

C=C1CC[C@]2(C)CC[C@]3(C)C4=CC=C5C(=CC(=O)C(O)=C5C)[C@]4(C)CC[C@@]3(C)[C@@H]2C1
T/C (dose: 0.06 mg/kg/injection, schedule: Q01DX009 (ip), vehicle: saline with Tween-80): 97 % of control
T/C (dose: 0.09 mg/kg/injection, schedule: Q01DX009 (ip), vehicle: none): 93 % of control
T/C (dose: 0.12 mg/kg/injection, schedule: Q01DX009 (ip), vehicle: saline with Tween-80): 103 % of control
T/C (dose: 0.19 mg/kg/injection, schedule: Q01DX009 (ip), vehicle: none): 103 % of control
T/C (dose: 0.25 mg/kg/injection, schedule: Q01DX009 (ip), vehicle: saline with Tween-80): 100 % of control and 103 % of control
T/C (dose: 0.5 mg/kg/injection, schedule: Q01DX009 (ip), vehicle: none): 107 % of control and 98 % of control
T/C (dose: 0.5 mg/kg/injection, schedule: Q01DX009 (ip), vehicle: saline with Tween-80): 103 % of control and 115 % of control
T/C (dose: 0.75 mg/kg/injection, schedule: Q01DX009 (ip), vehicle: none): 103 % of control and 107 % of control
T/C (dose: 1.0 mg/kg/injection, schedule: Q01DX009 (ip), vehicle: none): 110 % of control
T/C (dose: 1.0 mg/kg/injection, schedule: Q01DX009 (ip), vehicle: saline with Tween-80): 112 % of control and 119 % of control
T/C (dose: 1.5 mg/kg/injection, schedule: Q01DX009 (ip), vehicle: none): 105 % of control and 120 % of control and 98 % of control
T/C (dose: 2.0 mg/kg/injection, schedule: Q01DX009 (ip), vehicle: none): 115 % of control and 120 % of control
T/C (dose: 3.0 mg/kg/injection, schedule: Q01DX009 (ip), vehicle: none): 95 % of control

C[C@]12CC[C@H](O)C[C@@H]1CC[C@@H]1[C@@H]2C(=O)C[C@]2(C)C3=CC(=O)O[C@H]3C[C@@H]12
T/C [13]: 109 % of control
T/C (dose: 25.0 mg/kg/injection, schedule: Q04DX003 (ip), vehicle: saline with Tween-80): 117 % of control
T/C [1]: 118 % of control
T/C (dose: 50.0 mg/kg/injection, schedule: Q04DX003 (ip), vehicle: saline with Tween-80): 104 % of control
T/C [2]: 86 % of control
T/C (dose: 100.0 mg/kg/injection, schedule: Q04DX003 (ip), vehicle: saline with Tween-80): 113 % of control and 95 % of control

O=C(CCC(=O)Nc1cc(Cl)ccc1Cl)CC(=O)c1ccc([N+](=O)[O-])cc1
T/C [14]: 98 % of control
T/C [15]: 100 % of control
T/C [16]: 109 % of control

O=C1c2cc3c(-c4ccccc4)sc(-c4ccccc4)c3cc2C(=O)c2c(O)ccc(O)c21
T/C (dose: 12.5 mg/kg/injection, schedule: Q04DX002 (ip), vehicle: saline with Tween-80): 90 % of control
T/C (dose: 25.0 mg/kg/injection, schedule: Q04DX002 (ip), vehicle: saline with Tween-80): 91 % of control
T/C (dose: 50.0 mg/kg/injection, schedule: Q04DX002 (ip), vehicle: saline with Tween-80): 98 % of control and 88 % of control

CC1=N[N+](C)(C)C([O-])=C1C
T/C [7]: 103 % of control
T/C [8]: 97 % of control
T/C [9]: 100 % of control

Cc1nc2c(n1C)C(=O)c1nc[nH]c(=O)c1C2=O
T/C (dose: 1.75 mg/kg/injection, schedule: Q01DX005 (ip), vehicle: water): 102 % of control
T/C (dose: 3.5 mg/kg/injection, schedule: Q01DX005 (ip), vehicle: water): 92 % of control
T/C (dose: 7.0 mg/kg/injection, schedule: Q01DX005 (ip), vehicle: water): 96 % of control
T/C (dose: 14.0 mg/kg/injection, schedule: Q01DX005 (ip), vehicle: water): 96 % of control

C=CCN1CCCSC1=S
T/C (dose: 50.0 mg/kg/injection, schedule: Q01DX009 (ip), vehicle: Klucel (hydroxypropylcellulose) (HPC)): 106 % of control
T/C (dose: 100.0 mg/kg/injection, schedule: Q01DX009 (ip), vehicle: Klucel (hydroxypropylcellulose) (HPC)): 108 % of control

O=c1c2ccccc2nc(-c2cccc([N+](=O)[O-])c2)n1O
T/C [14]: 89 % of control
T/C [15]: 100 % of control
T/C [16]: 91 % of control

COC(=O)/C=C1\C[C@H]2C[C@]3(O)O[C@H](C[C@@H](O)CC(=O)O[C@@H]([C@@H](C)O)C[C@@H]4C/C(=C\C(=O)OC)[C@H](OC(C)=O)[C@@](O)(O4)C(C)(C)/C=C/[C@@H](C1)O2)C[C@H](OC(=O)CC(C)C)C3(C)C
T/C (dose: 3.0 micrograms/kg/injection, schedule: Q01DX009 (ip), vehicle: saline + alcohol): 111 % of control
T/C (dose: 5.0 micrograms/kg/injection, schedule: Q01DX009 (ip), vehicle: saline + alcohol): 113 % of control

CN1C(N)=NC(c2ccccc2)=CC1(C)c1ccccc1 (configuration not stated)
T/C (dose: 6.25 mg/kg/injection, schedule: Q01DX005 (ip), vehicle: Klucel (hydroxypropylcellulose) (HPC)): 101 % of control
T/C (dose: 12.5 mg/kg/injection, schedule: Q01DX005 (ip), vehicle: Klucel (hydroxypropylcellulose) (HPC)): 99 % of control
T/C (dose: 25.0 mg/kg/injection, schedule: Q01DX005 (ip), vehicle: Klucel (hydroxypropylcellulose) (HPC)): 108 % of control

Cc1ccn(C(=O)C2=Cc3ccccc3OC2)c(=N)c1
T/C (dose: 100.0 mg/kg/injection, schedule: Q04DX003 (ip), vehicle: Klucel (hydroxypropylcellulose) (HPC)): 106 % of control
T/C (dose: 200.0 mg/kg/injection, schedule: Q04DX003 (ip), vehicle: Klucel (hydroxypropylcellulose) (HPC)): 103 % of control
T/C (dose: 400.0 mg/kg/injection, schedule: Q04DX003 (ip), vehicle: Klucel (hydroxypropylcellulose) (HPC)): 100 % of control

O=c1[nH]cnc2n[nH]nc12
T/C [17]: 107 % of control
T/C [13]: 100 % of control
T/C [1]: 117 % of control
T/C [2]: 109 % of control
T/C [3]: 121 % of control

Cc1ccc(S(=O)CC(O)CO)cc1 (configuration not stated)
T/C [10]: 95 % of control
T/C [11]: 101 % of control
T/C [12]: 108 % of control

CC1(C)CC(=O)c2c(oc3ccc(O)cc23)C1
T/C [4]: 97 % of control
T/C [5]: 97 % of control
T/C [6]: 92 % of control

CC1COCCOCCOCC(C)OC(=O)CSCC(=O)O1 (configuration not stated)
T/C (dose: 100.0 mg/kg/injection, schedule: Q04DX003 (ip), vehicle: saline): 100 % of control
T/C (dose: 200.0 mg/kg/injection, schedule: Q04DX003 (ip), vehicle: saline): 104 % of control
T/C (dose: 400.0 mg/kg/injection, schedule: Q04DX003 (ip), vehicle: saline): 92 % of control

C/C(O)=C(/N=Nc1ccc(-c2nc3ccc(C)c(S(=O)(=O)O)c3s2)cc1)C(=O)Nc1ccccc1
T/C (dose: 6.25 mg/kg/injection, schedule: Q01DX009 (ip), vehicle: saline with Tween-80): 104 % of control
T/C [17]: 95 % of control
T/C [13]: 96 % of control

COC(=O)C12CCCC1(C(=O)OC)N2N1C(=O)c2ccccc2C1=O (configuration not stated)
T/C [4]: 100 % of control
T/C [5]: 100 % of control
T/C [6]: 105 % of control

O/N=C/C1CCCC[N-]1.[Co+3].[O-]/N=C/C1CCCC[N-]1.[O-]/N=C/C1CCCC[N-]1.[O-][Cl+3]([O-])([O-])O (configuration not stated)
T/C [14]: 97 % of control
T/C [15]: 103 % of control
T/C [16]: 104 % of control

C=CCNC(=S)Nc1ccccc1C(=O)c1ccccc1
T/C [1]: 104 % of control
T/C [2]: 103 % of control
T/C [3]: 103 % of control

O=C(Cc1nc2ccccc2[nH]c1=O)c1cccnc1
T/C [14]: 99 % of control
T/C [15]: 94 % of control
T/C [16]: 98 % of control
